Consider 17 compounds from US20140163026A1, “8-ETHYL-6-(ARYL)PYRIDO[2,3-D]PYRIMIDIN-7(8H)-ONES FOR THE TREATMENT OF NERVOUS SYSTEM DISORDERS AND CANCER” (Afraxis Holdings, Inc., priority 2011, published 2014).

Structures are written as SMILES.

In one assay the target is PAK1 (Homo sapiens, UniProt Q13153). Briefly: In vitro PAK inhibition assay (SelectScreen, Ser/Thr 19 peptide). The assay is classed as biochemical. The gist of the method:
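Kinase reaction ran in 50 mM HEPES pH 7.5, 0.01% BRIJ-35, 10 mM MgCl2, 1 mM EGTA with Ser/Thr 19 peptide for 60 min at room temperature, followed by 60 min protease development. Fluorescence gave percent phosphorylation. Compounds were tested as 10-point, 3-fold titrations in 1% DMSO final.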

The target in the next assay is PAK2 (PAK65) (Homo sapiens, UniProt Q13177). Briefly: In vitro PAK inhibition assay (SelectScreen, Ser/Thr 20 peptide). The format is biochemical. A digest of the protocol: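 FRET-based peptide cleavage assay: 0.29-6 ng PAK2 and 2 μM Ser/Thr 20 peptide in 50 mM HEPES pH 7.5, 10 mM MgCl2, 1 mM EGTA, 0.01% BRIJ-35, 1% DMSO final. Kinase reaction 60 min at room temperature, then 60 min development; 10-point 3-fold titrations, percent phosphorylation from fluorescence.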
PAK2 (PAK65), sequence (Q13177 whole entry): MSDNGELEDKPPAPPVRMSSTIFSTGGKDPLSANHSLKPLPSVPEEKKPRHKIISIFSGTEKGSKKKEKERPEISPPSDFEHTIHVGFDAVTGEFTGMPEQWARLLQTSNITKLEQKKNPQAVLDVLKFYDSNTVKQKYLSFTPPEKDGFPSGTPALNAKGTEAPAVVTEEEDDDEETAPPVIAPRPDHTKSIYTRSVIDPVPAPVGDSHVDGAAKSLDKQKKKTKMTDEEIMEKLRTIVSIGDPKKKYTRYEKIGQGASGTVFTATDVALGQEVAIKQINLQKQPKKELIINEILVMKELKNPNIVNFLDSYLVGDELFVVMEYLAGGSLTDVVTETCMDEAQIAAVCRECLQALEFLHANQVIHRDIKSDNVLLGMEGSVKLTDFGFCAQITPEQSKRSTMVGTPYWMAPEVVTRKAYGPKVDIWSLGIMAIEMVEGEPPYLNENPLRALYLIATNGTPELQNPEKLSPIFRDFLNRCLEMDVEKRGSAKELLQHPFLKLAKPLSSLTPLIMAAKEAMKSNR

Another assay addresses PAK3 (Homo sapiens, UniProt O75914). Described as above. The assay is classed as biochemical. A digest of the protocol: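 PAK3 phosphorylation of Ser/Thr 20 peptide in 50 mM HEPES pH 7.5, 0.01% BRIJ-35, 10 mM MgCl2, 1 mM EGTA, 1% DMSO final; 60 min at room temperature, then 60 min development reaction with fluorescence read-out. 10-point 3-fold titrations; percent phosphorylation from 0% and 100% phosphopeptide controls.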

A further assay addresses PAK4 (Homo sapiens, UniProt O96013). Described as above. The assay is classed as biochemical. A digest of the protocol:
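FRET-based Ser/Thr 20 peptide phosphorylation: 0.1-0.75 ng PAK4, 2 μM peptide in 50 mM HEPES pH 7.5, 10 mM MgCl2, 1 mM EGTA, 0.01% BRIJ-35, 1% DMSO; 60 min at room temperature, then 60 min protease development. 10-point 3-fold titrations; IC50 from sigmoidal fit.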

Another assay deals with Nf2−/− SC4 cells. Briefly: Growth inhibition of NF2 deficient cells (CellTiter-Glo). The format is cell-based, mouse. The settings on record: 1 uM concentration for 72 hours, FIG. 4. As for the experimental part:
(§1) NF2 deficient cell lines were cultured in the appropriate medium. Once enough cells have propagated, plates of all adherent lines were seeded at 5,000-10,000 cells/well (depending on cell line) in a total volume of 50 μL, and plates of all suspension lines at 10,000-20,000 cells/well (depending on cell line) in a total volume of 50 μL. Plates were placed in a humidified cell culture incubator overnight to allow adherent cells to attach.
(§2) 10 mM stocks of each PAK inhibitor compound in DMSO were prepared. Dilutions were performed with media to provide 1% DMSO 2× stock solutions of each PAK inhibitor compound.
50 μL of all PAK inhibitor compound 2× stocks were added to appropriate wells already containing 50 μL of cells and medium to expose cells to the final concentrations of compounds required. 50 μL of media was added to media and cell control wells and 50 μL of mix to vehicle control wells. At the same time as drug exposure, a CTG (CellTiter-Glo Assay) assay was performed on the 0 hr plate to obtain a 0 hr count. […]
At the end of the 72 hour exposure period, plates were removed for a CTG assay from 37° C., 5% CO2 incubator and place on the bench at room temperature for 30 mins. […] Luminescence for each well was determined.
Growth inhibition percent was calculated using the following equation: (Growth %=(Sample Value−T0Ave)/(Max−T0Ave)*100). […]
Background: In ATP-based viability assays light output follows the ATP content of the culture.

Assay [1] concerns NF2−/− mesothelioma cells (NCI-H226). The assay is described as above. The assay is classed as cell-based. The settings on record: 0 μM-30 μM, 72 hours, FIG. 7. As for the experimental part: as §1, §2
(§3) 50 μL of all PAK inhibitor compound 2× stocks were added to appropriate wells already containing 50 μL of cells and medium to expose cells to the final concentrations of compounds required. 50 μL of media was added to media and cell control wells and 50 μL of mix to vehicle control wells. At the same time as drug exposure, a CTG (CellTiter-Glo Assay) assay was performed on the 0 hr plate to obtain a 0 hr count. Cells were exposed to PAK inhibitor compounds or a DMSO control for 72 hours. Following the 72 hour exposure period, all remaining plates were assayed using CTG.
(§4) At the end of the 72 hour exposure period, plates were removed for a CTG assay from 37° C., 5% CO2 incubator and place on the bench at room temperature for 30 mins. 100 μL CTG reagent was added to each well, mixed for 2 minutes, followed by a further 10 minute incubation at room temperature. Luminescence for each well was determined.
(§5) Growth inhibition percent was calculated using the following equation: (Growth %=(Sample Value−T0Ave)/(Max−T0Ave)*100).
NF2^−/− mesothelioma cells (e.g., NCI-H226 cells) were treated with varying concentrations of a PAK inhibitor compound disclosed in Examples 33, 84, or 122.

For the next assay, the system named is EBC-1 cells. Briefly: Growth inhibition of PAK1 amplified NSCLC cells (CellTiter-Glo). The assay is classed as cell-based. The following applies: 0 μM-30 μM, 72 hours, FIG. 8. As for the experimental part:
(§6) The PAK1 amplified cell lines were cultured in the appropriate medium. Once enough cells have propagated, plates of all adherent lines were seeded at 5,000-10,000 cells/well (depending on cell line) in a total volume of 50 μL, and plates of all suspension lines at 10,000-20,000 cells/well (depending on cell line) in a total volume of 50 μL. Plates were placed in a humidified cell culture incubator overnight to allow adherent cells to attach.
as §2
(§7) 50 μL of media was added to media and cell control wells and 50 μL of mix to vehicle control wells. At the same time as drug exposure, a CTG (CellTiter-Glo Assay) assay was performed on the 0 hr plate to obtain a 0 hr count. Cells were exposed to PAK inhibitor compounds or a DMSO control for 72 hours. Following the 72 hour exposure period, all remaining plates were assayed using CTG.
as §4, §5

For another assay, the system named is NCI-H520 cells. The assay is described as above. The assay is classed as cell-based. The following applies: 0 μM-30 μM, 72 hours, FIG. 9. As for the experimental part:
as §6, §2, §7, §4, §5

Another assay has as its system SK-MES-1 cells. Described as above. The assay is classed as cell-based. The following applies: 0 μM-30 μM, 72 hours, FIG. 10. As for the experimental part: as §6, §2, §7, §4, §5
A further assay concerns NF2−/− Schwannoma cells. Nature of the assay: Growth inhibition of NF2 deficient cells (CellTiter-Glo). The assay is classed as cell-based. The settings on record: 1 uM concentration, FIG. 6. As for the experimental part: as §1, §2, §3, §4, §5
NF2^−/− Schwannoma cells were treated with a DMSO control or a PAK inhibitor compound (1 uM concentration) disclosed in Examples 101, 122, or 190.

PAK1, sequence (Q13153 whole entry): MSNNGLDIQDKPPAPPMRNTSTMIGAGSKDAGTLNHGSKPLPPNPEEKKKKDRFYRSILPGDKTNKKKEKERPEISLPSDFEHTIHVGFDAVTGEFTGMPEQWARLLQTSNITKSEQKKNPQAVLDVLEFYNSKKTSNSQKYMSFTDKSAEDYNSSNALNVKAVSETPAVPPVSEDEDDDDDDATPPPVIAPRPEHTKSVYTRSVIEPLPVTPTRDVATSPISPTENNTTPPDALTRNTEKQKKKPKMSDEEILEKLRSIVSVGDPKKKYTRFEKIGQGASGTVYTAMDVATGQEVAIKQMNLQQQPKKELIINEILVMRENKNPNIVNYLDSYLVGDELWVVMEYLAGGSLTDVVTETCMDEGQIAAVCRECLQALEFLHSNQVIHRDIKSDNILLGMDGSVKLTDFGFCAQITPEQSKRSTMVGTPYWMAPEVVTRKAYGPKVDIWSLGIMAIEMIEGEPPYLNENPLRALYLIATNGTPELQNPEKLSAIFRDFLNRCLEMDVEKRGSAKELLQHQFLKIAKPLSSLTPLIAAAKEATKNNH
PAK4, sequence (O96013 whole entry): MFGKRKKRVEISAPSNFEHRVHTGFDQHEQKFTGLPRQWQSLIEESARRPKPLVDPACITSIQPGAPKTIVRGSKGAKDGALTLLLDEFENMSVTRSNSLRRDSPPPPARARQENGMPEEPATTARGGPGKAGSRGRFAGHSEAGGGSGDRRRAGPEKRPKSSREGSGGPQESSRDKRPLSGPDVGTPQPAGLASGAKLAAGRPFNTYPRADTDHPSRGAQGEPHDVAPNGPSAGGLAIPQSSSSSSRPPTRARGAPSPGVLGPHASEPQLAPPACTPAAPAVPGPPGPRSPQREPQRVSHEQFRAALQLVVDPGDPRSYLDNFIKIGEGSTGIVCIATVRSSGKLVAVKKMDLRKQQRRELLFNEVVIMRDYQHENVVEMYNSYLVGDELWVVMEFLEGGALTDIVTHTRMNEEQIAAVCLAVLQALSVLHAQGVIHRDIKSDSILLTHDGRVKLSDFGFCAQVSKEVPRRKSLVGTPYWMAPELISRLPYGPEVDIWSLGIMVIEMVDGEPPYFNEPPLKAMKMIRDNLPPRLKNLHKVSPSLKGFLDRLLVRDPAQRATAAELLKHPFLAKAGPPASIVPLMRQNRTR
PAK3, sequence (O75914 whole entry): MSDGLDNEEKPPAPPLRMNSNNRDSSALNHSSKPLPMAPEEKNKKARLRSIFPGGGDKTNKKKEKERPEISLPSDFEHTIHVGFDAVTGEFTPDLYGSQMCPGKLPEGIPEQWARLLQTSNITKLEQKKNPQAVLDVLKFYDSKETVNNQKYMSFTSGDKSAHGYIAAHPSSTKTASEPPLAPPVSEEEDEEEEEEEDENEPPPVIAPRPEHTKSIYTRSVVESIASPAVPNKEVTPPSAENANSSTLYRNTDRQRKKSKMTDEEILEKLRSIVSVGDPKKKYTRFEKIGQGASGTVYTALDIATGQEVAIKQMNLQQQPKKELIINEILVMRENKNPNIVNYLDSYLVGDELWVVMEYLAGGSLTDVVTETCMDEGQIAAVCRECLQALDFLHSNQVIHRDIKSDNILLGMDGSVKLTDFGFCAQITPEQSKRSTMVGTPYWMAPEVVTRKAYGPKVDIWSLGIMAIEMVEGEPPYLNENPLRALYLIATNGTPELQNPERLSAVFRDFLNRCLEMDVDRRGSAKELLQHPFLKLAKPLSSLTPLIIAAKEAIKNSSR

A word on the IC50: it is the concentration needed to halve the response being measured. In the case of `CCn1c(=O)c(-c2ccc(-c3cccs3)cc2)cc2cnc(Nc3ccc(N4CCN(C)CC4)cc3)nc21`, the IC50 at PAK1 is 50 to 500 nM; on PAK2 (PAK65) it was 0.5 to 5 µM; against PAK3 it was more than 5 µM; against PAK4, not below 5 µM.
The matching figures for `CCn1c(=O)c(-c2ccc(-c3cncs3)cc2)cc2cnc(Nc3ccc(N4CCN(C)CC4)cc3)nc21`: 50 to 500 nM, 0.5 to 5 µM, more than 5 µM and not below 5 µM.
The matching figures for `CCn1c(=O)c(-c2ccc(-c3cscn3)cc2Cl)cc2cnc(Nc3ccc(N4CCN(C)CC4)cc3)nc21`: less than 50 nM, 0.05 to 0.5 µM, 0.05 to 0.5 µM and not below 5 µM.
In the case of `CCn1c(=O)c(-c2ccc(C3CC3)s2)cc2cnc(Nc3ccc(N4CCN(C)CC4)cc3)nc21`, the IC50 is more than 5000 nM against PAK1, more than 5 µM against PAK2 (PAK65), more than 5 µM on PAK3 and not below 5 µM at PAK4.
In the case of `CCn1c(=O)c(-c2ccc(-c3csc(C)n3)s2)cc2cnc(Nc3ccc(N4CCN(C)CC4)cc3)nc21`, the IC50 against PAK1 is more than 5000 nM; against PAK2 (PAK65), more than 5 µM; at PAK3, more than 5 µM; against PAK4, not below 5 µM.
For the compound `CCn1c(=O)c(-c2ccc(-c3noc(C)n3)s2)cc2cnc(Nc3ccc(N4CCN(C)CC4)cc3)nc21`, the IC50 was more than 5000 nM against PAK1, more than 5 µM against PAK2 (PAK65), more than 5 µM on PAK3 and not below 5 µM at PAK4.
Turning to `CCn1c(=O)c(-c2ccc(-c3ccccn3)s2)cc2cnc(Nc3ccc(N4CCN(C)CC4)cc3)nc21`, the concentration for half-maximal inhibition (IC50) is more than 5000 nM against PAK1, more than 5 µM against PAK2 (PAK65), more than 5 µM at PAK3 and not below 5 µM on PAK4.
In the case of `CCn1c(=O)c(-c2ccc(-c3cccnc3)s2)cc2cnc(Nc3ccc(N4CCN(C)CC4)cc3)nc21`, the IC50 is more than 5000 nM on PAK1, more than 5 µM against PAK2 (PAK65), more than 5 µM at PAK3 and not below 5 µM at PAK4.
On to `CCn1c(=O)c(-c2ccc(-c3nnn[nH]3)s2)cc2cnc(Nc3ccc(N4CCN(C)CC4)cc3)nc21`, for which the IC50 against PAK1 is more than 5000 nM; on PAK2 (PAK65), more than 5 µM; against PAK3, more than 5 µM; against PAK4, not below 5 µM.
Take `CCn1c(=O)c(-c2ccc(-c3nnn[nH]3)cc2Cl)cc2cnc(Nc3ccc(N4CCN(C)CC4)cc3)nc21`: the IC50 on PAK1 is more than 5000 nM; at PAK2 (PAK65) it was more than 5 µM; against PAK3, more than 5 µM; at PAK4, not below 5 µM.
On to `CCn1c(=O)c(-c2ccc(-c3ccc(OC)nc3)cc2Cl)cc2cnc(Nc3ccc(N4CCN(C)CC4)cc3)nc21`, for which the IC50 against PAK1 was less than 50 nM; on PAK2 (PAK65), less than 0.05 µM; against PAK3, less than 0.05 µM; against PAK4 it was 0.05 to 0.5 µM.
As for `CCn1c(=O)c(-c2ccc(-c3cccnc3F)cc2Cl)cc2cnc(Nc3ccc(N4CCN(C)CC4)cc3)nc21` [Example 33], the “cell number compared to DMSO control treated cells” value in the assay with Nf2−/− SC4 cells was “reduction in cell number”. Also, the “growth (%) with increasing concentration” value is reported as “the growth (%) of the cells reduced” in [1], “the growth (%) decreased” with EBC-1 cells, “the growth (%) decreased” in the assay on NCI-H520 cells and “the growth (%) decreased” in the assay with SK-MES-1 cells.
With `CCn1c(=O)c(-c2ccc(-c3cnc(C)s3)cc2Cl)cc2cnc(Nc3ccc(C4CCN(C)CC4)cc3)nc21` [Example 101], in the assay with NF2−/− Schwannoma cells, the “cell number compared to DMSO control treated cells” value is “reduction in cell number”.
For `CCn1c(=O)c(-c2ccc(-c3noc(C)n3)cc2Cl)cc2cnc(Nc3ccc(C4CCN(C)CC4)cc3)nc21` [Example 122], the “cell number compared to DMSO control treated cells” value in the assay on NF2−/− Schwannoma cells was “reduction in cell number”. Further, the “growth (%) with increasing concentration” value is recorded as “the growth (%) of the cells reduced” in assay [1], “the growth (%) decreased” in the assay with EBC-1 cells, “the growth (%) decreased” in the assay on NCI-H520 cells and “the growth (%) decreased” in the assay with SK-MES-1 cells.
Regarding `CCn1c(=O)c(-c2ccc(-c3cncc(C)n3)cc2Cl)cc2cnc(Nc3ccc(C4CCN(C)CC4)cc3)nc21` [Example 190], the “cell number compared to DMSO control treated cells” value in the assay on NF2−/− Schwannoma cells is “reduction in cell number”.
Take `CCn1c(=O)c(-c2ccc(-c3cccnc3)cc2Cl)cc2cnc(Nc3ccc(N4CCN(C(C)C)CC4)cc3)nc21` [drawing 650]: the IC50 was less than 50 nM at PAK1, less than 0.05 µM against PAK2 (PAK65), less than 0.05 µM against PAK3 and not below 5 µM on PAK4.
As for `CCn1c(=O)c(-c2ccc(-c3cccnc3)cc2Cl)cc2cnc(Nc3ccc(N4CCN(C(C)C)CC4)cc3)nc21` [drawing 655], the IC50 against PAK1 is less than 50 nM; at PAK2 (PAK65) it was less than 0.05 µM; against PAK3, less than 0.05 µM; at PAK4 it was 0.05 to 0.5 µM.
